SMILES strings stand for the structures.

Assay [1] concerns layer V neurons in acute cortical slices. Kind of assay: Whole cell current clamp of layer V neurons in acute cortical slices. The assay is classed as cell-based, mouse.
The target of assay [2] is α3Na+/K+-ATPase (Mus musculus, UniProt Q6PIC6). Kind of assay: Na+ imaging (SBFI-AM) of cultured cortical cells. To be noted: fragment or ouabain alone; neurons. The assay is classed as cell-based.

On to `C=C(C)[C@H]1CN[C@H](C(=O)O)[C@H]1CC(=O)O` [kainic acid, reference compound], for which, in assay [1], the action potential frequency is recorded as 0.6±0.2 Hz and the membrane potential is listed as −56.2±1.3 mV.
For the compound `C[C@@H]1O[C@@H](O[C@H]2C[C@@H](O)[C@]3(CO)[C@H]4[C@H](O)C[C@]5(C)[C@@H](C6=CC(=O)OC6)CC[C@]5(O)[C@@H]4CC[C@]3(O)C2)[C@H](O)[C@H](O)[C@H]1O` [ouabain, reference compound], the “neuronal intracellular Na+” value in assay [2] is “increase”.

The values above are taken from patent publication US20100095387A1, “METHODS AND REAGENTS FOR SCREENING NEW DRUGS AND FOR TREATING ION PUMP ASSOCIATED DISORDERS AND DISEASES” (priority 2005, published 2010).
